The text below walks through data of ChEMBL document CHEMBL4024722, “Discovery of acylguanidine oseltamivir carboxylate derivatives as potent neuraminidase inhibitors” (Bioorg Med Chem, 2017).

Data set [1] in a line: Inhibition of Influenza A virus (A/Puerto Rico/8/1934(H1N1)) neuraminidase H259Y mutant using 4-MU-NANA as substrate preincubated for 10 mins followed by substrate addition measured after 1 hr by fluorescence assay.
The nature of data set [2]: Antiviral activity against Influenza A virus (A/Hong Kong/498/97(H3N2)) harboring wild type neuraminidase infected in MDCK cells assessed as inhibition of viral replication preincubated for 36 hrs followed by reinfection in new monolayer of MDCK cells every 1 hr for 24 hrs. The data set is classed as functional, cell-based.
Data set [3] concerns Influenza A virus. The format is functional, cell-based, A/Puerto Rico/8/1934(H1N1).
Data set [4] relates to Influenza A virus. The data set can be described thus: Antiviral activity against Influenza A virus (A/Puerto Rico/8/1934(H1N1)) harboring wild type neuraminidase assessed as inhibition of viral replication preincubated for 36 hrs followed by reinfection in new monolayer of MDCK cells every 1 hr for 12 hrs. The format is functional.
The nature of data set [5]: in vitro. To be noted: dog, MDCK cells.

The term IC50 denotes the concentration needed to halve the response being measured. High values mean weaker potency in that assay, low ones greater potency in that assay. In data set [1], `CCC(CC)O[C@@H]1C=C(C(=O)O)C[C@H](NC(=N)NC(=O)c2ccncc2)[C@H]1NC(C)=O` displayed an IC50 of 36.8 nM.

One may read the EC50 as the midpoint of the concentration-response curve. Regarding `CCC(=O)NC(=N)N[C@H]1CC(C(=O)O)=C[C@@H](OC(CC)CC)[C@@H]1NC(C)=O`, the concentration for a half-maximal effect (EC50) in data set [2] was found to be 5.3 nM; in data set [3], 37.3 nM; in data set [4], 23.9 nM. Moreover, the selectivity ratio in data set [5] was more than 26.8. Besides, the midpoint of inhibition in data set [1], the IC50, lay at 74.2 nM.

For the compound `CCC(CC)O[C@@H]1C=C(C(=O)O)C[C@H](NC(=N)NC(=O)c2ccc([N+](=O)[O-])cc2)[C@H]1NC(C)=O`, the EC50 in data set [2] worked out at 39.2 nM; in data set [3], 136 nM; in data set [4] it was 160 nM. In addition, in data set [5], the selectivity ratio is more than 7.4. The compound also returned an IC50 in data set [1] of 57.8 nM.

In data set [1], `CCC(CC)O[C@@H]1C=C(C(=O)O)C[C@H](NC(=N)NC(=O)C(C)C)[C@H]1NC(C)=O` returned an IC50 of 132 nM.

Turning to `CCC(CC)O[C@@H]1C=C(C(=O)O)C[C@H](NC(=N)NC(=O)CC(C)C)[C@H]1NC(C)=O`, the IC50 in data set [1] is 445 nM.

Turning to `C=CCCC(=O)NC(=N)N[C@H]1CC(C(=O)O)=C[C@@H](OC(CC)CC)[C@@H]1NC(C)=O`, the values for the EC50 in data set [2], in data set [3] and in data set [4] were 9.45 nM, 7.18 nM and 24.5 nM, respectively. For the same compound, in data set [5], the selectivity ratio was more than 139. The compound also showed an IC50 in data set [1] of 30.5 nM.

As to `CCCC(=O)NC(=N)N[C@H]1CC(C(=O)O)=C[C@@H](OC(CC)CC)[C@@H]1NC(C)=O`, in data set [1], the IC50 turned out to be 133 nM.

In data set [1], `CCC(CC)O[C@@H]1C=C(C(=O)O)C[C@H](NC(=N)NC(=O)CCc2ccccc2)[C@H]1NC(C)=O` displayed an IC50 of 114 nM.

For the compound `CCC(CC)O[C@@H]1C=C(C(=O)O)C[C@H](NC(=N)NC(=O)CCc2ccc(OC)c(OC)c2)[C@H]1NC(C)=O`, the EC50 is 5.62 nM in data set [2], 23 nM in data set [3] and 20.1 nM in data set [4]. The selectivity ratio in data set [5] is more than 43.4. Also, half-maximal inhibition in data set [1] (IC50) required 14.5 nM.

In data set [1], `CCC(CC)O[C@@H]1C=C(C(=O)O)C[C@H](NC(=N)NC(=O)Cc2ccccc2C)[C@H]1NC(C)=O` registered a concentration for half-maximal inhibition (IC50) of 225 nM.

Take `CCC(CC)O[C@@H]1C=C(C(=O)O)C[C@H](NC(=N)NC(=O)CCc2cccnc2)[C@H]1NC(C)=O`: the IC50 in data set [1] was 21.1 nM.

As to `CCC(CC)O[C@@H]1C=C(C(=O)O)C[C@H](NC(=N)NC(=O)Cc2ccc(Br)cc2)[C@H]1NC(C)=O`, the values for the EC50 in data set [2], in data set [3] and in data set [4] were 2.58 nM, 69.1 nM and 12.9 nM, respectively. In data set [5], the selectivity ratio was more than 14.5. Also, the IC50 in data set [1] stood at 40.6 nM.

As to `CCC(CC)O[C@@H]1C=C(C(=O)O)C[C@H](NC(=N)NC(=O)c2cccc(C)c2)[C@H]1NC(C)=O`, the IC50 in data set [1] is more than 1000 nM.

`CCCCC(=O)NC(=N)N[C@H]1CC(C(=O)O)=C[C@@H](OC(CC)CC)[C@@H]1NC(C)=O` came in with an IC50 in data set [1] of 163 nM.

Compound `CCC(CC)O[C@@H]1C=C(C(=O)O)C[C@H](NC(=N)NC(=O)Cc2ccc(C)cc2)[C@H]1NC(C)=O` registered an IC50 in data set [1] of 132 nM.

Regarding `CCC(CC)O[C@@H]1C=C(C(=O)O)C[C@H](NC(=N)NC(=O)Cc2ccc3ccccc3c2)[C@H]1NC(C)=O`, the EC50 in data set [2] was found to be 3.95 nM; in data set [3], 11.3 nM; in data set [4] it was 8.45 nM. Besides, the selectivity ratio in data set [5] was more than 88.6. Half-maximal inhibition in data set [1] (IC50) required 66.7 nM.

Consider `CCC(CC)O[C@@H]1C=C(C(=O)O)C[C@H](NC(=N)NC(=O)CCCc2ccccc2)[C@H]1NC(C)=O`, for which it took 221 nM to reach half-maximal inhibition in data set [1] (IC50).
